The test system of data set [1] is mouse. The settings on record: in vivo, inhaled or intranasal.
For data set [2], the system named is mouse. The settings on record: in vivo; cited from earlier work.
For data set [3], the system named is rat. The settings on record: in vivo; cited from earlier work.
Data set [4] concerns rat. The settings on record: in vivo.
The next data set relates to rats. The settings on record: rat, in vivo, po, 300 mg/kg.
The nature of another data set: in vivo. The settings on record: rat, po, 300 mg/kg.
The conditions of data set [5]: male, Sprague-Dawley, rat.
The next data set concerns male Sprague-Dawley rats. The settings on record: rat, in vivo.

The source of these data is patent publication US10308592B2 (priority 2014, dated 2019).

Like-named read-outs stand apart in the source and are kept apart here. Bounds are passed on as bounds.

Take `COC(F)(F)C(C(F)(F)F)C(F)(F)F` [OIME, (CF3)2CHCF2OCH3]: the “NOAEL/NOEL data: NOAEL by inference” value in the data set on mouse [1] is listed as <660 ppm (mouse,. The “LC50 (LD50) data - inhalation” value in the data set on mouse [2] is given as “LC50 660 ppm”.
On to `FC(F)C(F)(F)OCC(F)(F)F` [AE-3000, CF3CH2OCF2CF2H], for which the “LC50 (LD50) data - inhalation” value in the data set with rat [3] is given as “LC50 3010 ppm”.
Consider `COC(F)(F)C(F)C(F)(F)F` (centres unmarked) [301-monohydride, CF3CFHCF2OCH3], for which, in the data set on rat [4], the “LC50 (LD50) data - inhalation” value is “LC50 >10,000 ppm”. In addition, the “NOAEL/NOEL data: NOAEL by inference” value with rat [4] (inhaled or intranasal) is recorded as <10,000 ppm (rat.
The LD50 is the dose expected to kill half of the subjects tested. A high value points to a less toxic substance. Consider `FC(F)C(F)(F)COC(F)(F)C(F)N1C(F)(F)C(F)(F)OC(F)(F)C1(F)F` (centres unmarked) [Example 2, 2,2,3,3,5,5,6,6-octafluoro-4-[1,2,2-trifluoro-2-(2,2,3,3-tetrafluoropropoxy)ethyl]morpholine], for which, in the data set on rats, the “Adverse clinical observations during post dose recovery period” value was “No adverse clinical observations were noted” and the Necropsy results is “normal for all animals”. The compound also gave an LD50 in the data set “in vivo” of over 300 mg/kg.
For orientation: chromatographic logP means a lipophilicity value derived from retention on a column. Low readings indicate a more hydrophilic compound, high ones a more lipophilic compound. For the compound `COC(F)(F)C(F)N1C(F)(F)C(F)(F)OC(F)(F)C1(F)F` (centres unmarked) [Example 1, 2,2,3,3,5,5,6,6-octafluoro-4-(1,2,2-trifluoro-2-methoxy-ethyl)morpholine], the “Acute Vapor Hazard Ratio” value in data set [5] is 4. Besides, the “LC50 (LD50) data - inhalation” value in the data set on male Sprague-Dawley rats (male, Sprague-Dawley) was “LC50 >5000 ppm”. In addition, in the data set with male Sprague-Dawley rats, the “4 hour LC-50” value was > 5000 ppm (v/v); the “Clinical observations, body or organ weight effects” value is recorded as “no significant clinical observations or body or organ weight effects were noted”; the “Survival and appearance during 14 day post dose recovery period” value is “All animals survived and appeared normal”. In the data set on male Sprague-Dawley rats (inhaled or intranasal), the “NOAEL (No Observable Adverse Effect Level)” value is recorded as > 5000 ppm (v/v) and the “NOAEL/NOEL data: NOEL” value is given as “NOEL >5000 ppm”. This compound also yielded a chromatographic logP in “physchem” of 4.46.
In the case of `CC(OC(F)(F)C(F)C(F)(F)F)C(F)(F)C(F)C(F)(F)F` (centres unmarked) [Novec 7600, CF3CFHCF2CH(CH3)OCF2CFHCF3], in the data set with rat [4] (inhaled or intranasal), the “NOAEL/NOEL data: NOEL” value was 29d) <500 ppm.
